Measurements reported in publication PMC11085134, “Chemical Constituents and Anticancer Activities of Marine-Derived Fungus Trichoderma lixii” (Molecules, 2024).
Entries after “also recorded” stand apart in the source; their conditions may differ. Where two headings read alike, the source gives them in different places.

What was measured:
PANC-1 cancer cells = assay: Anti-austerity assay (cytotoxicity under glucose starvation vs normal glucose); conditions: for Anti-Austerity Activity Selectivity: Glucose − versus Glucose +; for Selective index (SI): IC50 high glucose versus no glucose media
Description: Human myeloma KMS-11, colorectal HT-29, and pancreatic PANC-1 cancer cells were obtained from the Japanese Collection of Research Bioresources (JCRB) Cell Bank (JCRB1179, Osaka, Japan), the American Type Culture Collection (ATCC, HTB-38, Manassas, VA, USA), and the Riken BioResource Research Center (BRC, RCB2095, Ibaraki, Japan), respectively. KMS-11, HT-29, and PANC-1 were cultured in Roswell Park Memorial Institute (RPMI)-1640 medium (Nacalai Tesque, Inc.), McCoy’s 5A medium (Gibco Thermo Fisher Scientific Inc., Waltham, MA, USA), and Dulbecco’s Modified Eagle Medium (DMEM) high glucose (Nacalai Tesque, Inc.), respectively. The culture media contained 10% fetal bovine serum (FBS, Equitech-Bio Inc., Kerrville, TX, USA) and 50 μg/mL kanamycin (Fujifilm Wako Pure Chemical Corporation, Osaka, Japan). To induce cell adaptation to nutrient starvation, PANC-1 was cultured in DMEM no glucose (Nacalai Tesque, Inc.) containing 10% dialyzed FBS (Equitech-Bio Inc.) and 50 μg/mL kanamycin. Human umbilical vein endothelial cells (HUVEC) were obtained from Kurabo Industries Ltd., Osaka, Japan (KE-4109) and cultured in HuMedia-EB2 (Kurabo Industries Ltd.) supplemented with HuMedia-EG (2% FBS, 10 ng/mL human epidermal growth factor, 1.34 μg/mL hydrocortisone, antibacterial agents, 50 μg/mL gentamicin and 50 ng/mL amphotericin B, 5 ng/mL human fibroblast growth factor-B, and 10 μg/mL heparin). Cells were incubated in a humidified incubator at 37 °C in an atmosphere of 5% CO2.
The anti-austerity activity against PANC-1 cell line was investigated by a WST-8 based assay according to the method described above. PANC-1 cells were plated in a 96-well flat bottom plate at a high density of 10,000 cells/100 μL/well in a DMEM high glucose medium overnight. The medium was removed, washed with phosphate-buffered saline (PBS, Nissui Pharmaceutical Co., Ltd., Tokyo, Japan) twice, and then replaced with either DMEM high glucose or DMEM no glucose. After incubation for 12 h, crude extracts (final concentration 100 μg/mL) or serially diluted compounds were added, and the cells were incubated for an additional 12 h. […] Selective index (SI) was based on the difference between the IC50 values obtained from the high glucose and no glucose media. Antimycin A was used as a positive control.

[1] = tested on: HUVEC (human umbilical vein endothelial cells); assay: Antiproliferative WST-8 assay, HUVEC; assay type: cell-based; conditions: 48 h, normal cell line, read-out: Antiproliferative Activity (IC50 ± SE) HUVEC
Description: The antiproliferative activity of all eleven isolated compounds against normal cell line HUVEC was also examined by WST-8 based assay (Table 2). […] Further extensive structural modifications and in-depth structure–activity relationship studies are required to enhance efficacy and reduce the side effects on normal cells.
(§1) The antiproliferative activity against cancer and normal cell lines was investigated by a WST-8 based assay. […] Compounds to be tested were dissolved in DMSO for stock solution (20 μg/mL) and the final concentration of DMSO was 0.5%. Then, 100 μL of corresponding medium containing 10% WST-8 (Nacalai Tesque, Inc.) was added and incubated for up to 4 h. The absorbance of the formazan products was measured at 450 nm using an iMark^TM microplate reader (Bio-Rad Laboratories, Inc. Hercules, CA, USA). […] Cisplatin (Fujifilm Wako Pure Chemical Corporation) was used as a positive control.

[2] = tested on: HT-29 human colorectal cell line; assay: Antiproliferative WST-8 assay, HT-29; assay type: cell-based; conditions: read-out: Antiproliferative Activity (IC50 ± SE) HT-29
Excerpt: (§2) The assessment of antiproliferative effects is a fundamental in vitro assay in the early stages of drug discovery for the screening of potential anticancer compounds that merit further investigation and development for their therapeutic potential in the fight against cancer. The antiproliferative activity of all isolated compounds against three cancer cell lines (KMS-11, HT-29, and PANC-1) was examined by WST-8 based assay according to the manufacturer’s instructions.
as §1

[3] = tested on: KMS-11 human myeloma cell line; assay: Antiproliferative WST-8 assay, KMS-11; assay type: cell-based; conditions: read-out: Antiproliferative Activity (IC50 ± SE) KMS-11
Excerpt: as §2, §1

[4] = tested on: PANC-1 human pancreas cell line; assay: Antiproliferative WST-8 assay, PANC-1; assay type: cell-based; conditions: read-out: Antiproliferative Activity (IC50 ± SE) PANC-1
Excerpt: as §2, §1

[5] = tested on: KMS-11, HT-29, and PANC-1 cancer cell lines; assay: Antiproliferative activity, summary over the three cancer cell lines; assay type: cell-based, human; conditions: for IC50: Homo sapiens, 48 h, KMS-11, HT-29 and PANC-1, read-out: IC50, antiproliferative, over all tested cancer cell lines
Excerpt: as §2, §1

[6] = tested on: complex II in the mitochondrial electron transport chain; parameters: method as in PMID 31435860; conditions: cited from earlier work
[7] = parameters: method as in PMID 31030449, PMID 36005532; conditions: cited from earlier work
[8] = parameters: method as in PMID 31030449, PMID 36005532; conditions: cited from earlier work; remark: listed apart in the source
[9] = parameters: method as in PMID 25659618; conditions: oxygen-labile conjugated diene units; cited from earlier work
colon HCT-116 = tested on: colon HCT-116; parameters: method as in PMID 29144133; conditions: at 50 μM; cited from earlier work
human cervical HeLa = tested on: human cervical HeLa; parameters: method as in PMID 29144133; conditions: at 50 μM; cited from earlier work
breast MCF-7 = tested on: breast MCF-7; parameters: method as in PMID 29144133; conditions: at 50 μM; cited from earlier work
Escherichia coli = tested on: Escherichia coli; parameters: method as in PMID 26728965, PMID 32676071, PMID 32077325, doi:10.1007/s10600-022-03814-7; conditions: cited from earlier work
leukemia K562 = tested on: leukemia K562; parameters: method as in PMID 29144133; conditions: at 50 μM; cited from earlier work
lung A549 = tested on: lung A549; parameters: method as in PMID 29144133; conditions: at 50 μM; cited from earlier work
[10] = tested on: mouse lymphoma L5178Y cell line; parameters: method as in earlier work; conditions: at 28 μM; cited from earlier work
[11] = tested on: complex I in helminth mitochondria; conditions: cited from earlier work
leukemia HL-60 = tested on: leukemia HL-60; parameters: method as in PMID 29144133; conditions: at 50 μM; cited from earlier work
[12] = Homo sapiens, PANC-1, 12 h, read-out: Anti-Austerity Activity (IC50 ± SE) Glucose +
[13] = Homo sapiens, PANC-1, 12 h, read-out: Anti-Austerity Activity (IC50 ± SE) Glucose −

CCCCCC[C@H]1C(=O)O[C@H](C)[C@H](NC(=O)c2cccc(NC=O)c2O)C(=O)O[C@@H](C)[C@@H]1OC(=O)CC(C)C [Antimycin A, reference compound]
Anti-Austerity Activity Selectivity (PANC-1 cancer cells): selective
IC50 (PANC-1 cancer cells; [12]): > 300 µM
IC50 (PANC-1 cancer cells; [13]): 0.0162 ± 0.00026 µM
Selective index (SI) (PANC-1 cancer cells): ≥ 18,480

N.N.[Cl][Pt][Cl] [Cisplatin, reference compound]
IC50 [1]: 13.7 ± 2.57 µM
IC50 ([2]; 48 h): 10.6 ± 0.83 µM
IC50 (PANC-1 cancer cells; read-out: Anti-Austerity Activity (IC50 ± SE) Glucose +, 12 h, normal glucose (DMEM high glucose)): > 100 µM
IC50 (PANC-1 cancer cells; read-out: Anti-Austerity Activity (IC50 ± SE) Glucose −, 12 h, glucose starvation (DMEM no glucose)): > 100 µM
IC50 (PANC-1 cancer cells; read-out: IC50 against PANC-1 under both glucose starvation and normal glucose conditions, 12 h, both Glucose − and Glucose +): > 100 µM
IC50 ([3]; 48 h): 4.91 ± 1.06 µM
IC50 ([4]; 48 h): 28.6 ± 3.43 µM

COc1ccc2cc(NC(=O)C3=NO[C@H]4[C@H](O)C=C[C@@H](O)[C@@]4(O)C3)c(=O)oc2c1OC [Compound 1, trichodermamide A]
IC50 ([1]; Homo sapiens, HUVEC): > 100 µM
Antiproliferative activity in words ([5]; all tested cell lines): completely inactive
IC50 ([2]; Homo sapiens, HT-29, 48 h): > 100 µM
IC50 (PANC-1 cancer cells; [12]): > 100 µM
IC50 (PANC-1 cancer cells; [13]): > 100 µM
IC50 (PANC-1 cancer cells; Homo sapiens, PANC-1, 12 h, read-out: IC50 against PANC-1 under both glucose starvation and normal glucose conditions): > 100 µM
IC50 ([3]; Homo sapiens, KMS-11, 48 h): > 100 µM
IC50 ([4]; Homo sapiens, PANC-1, 48 h): > 100 µM

COc1ccc2cc(NC(=O)C3=NO[C@H]4[C@H](O)C=C[C@@H](Cl)[C@@]4(O)C3)c(=O)oc2c1OC [Compound 2, trichodermamide B]
IC50 ([1]; Homo sapiens, HUVEC): 1.69 ± 0.26 µM
IC50 [5]: 0.7 to 3.6 µM
IC50 ([2]; Homo sapiens, HT-29, 48 h): 0.73 ± 0.12 µM
Anti-Austerity Activity Selectivity (PANC-1 cancer cells): did not display selectivity; also recorded: not selective
IC50 (PANC-1 cancer cells; [12]): 11.6 ± 1.59 µM
IC50 (PANC-1 cancer cells; [13]): 17.8 ± 4.75 µM
IC50 ([3]; Homo sapiens, KMS-11, 48 h): 1.38 ± 0.12 µM
IC50 ([4]; Homo sapiens, PANC-1, 48 h): 3.58 ± 0.32 µM

COc1ccc2cc(NC(=O)[C@@]34C[C@@]5(O)C(ON3)[C@H](O)C=C[C@H]5S4)c(=O)oc2c1OC (stereo partly shown) [Compound 3, aspergillazine A]
IC50 ([1]; Homo sapiens, HUVEC): 26.2 ± 5.51 µM
IC50 ([2]; Homo sapiens, HT-29, 48 h): 22.2 ± 3.09 µM
Anti-Austerity Activity Selectivity (PANC-1 cancer cells): selective
IC50 (PANC-1 cancer cells; [12]): > 400 µM
IC50 (PANC-1 cancer cells; [13]): 75.6 ± 4.08 µM
Selective index (SI) (PANC-1 cancer cells): ≥ 5
IC50 ([3]; Homo sapiens, KMS-11, 48 h): 38 ± 7.72 µM
IC50 ([4]; Homo sapiens, PANC-1, 48 h): 50.3 ± 4.21 µM

COc1ccc(C2SSC34CC5(O)C(Cl)C=CC(O)C5ON3C(=O)C2NC4=O)c(O)c1OC (stereo not shown) [Compound 4, DC1149B]
IC50 ([1]; Homo sapiens, HUVEC): 6.94 ± 0.86 µM
Inhibition of complex II in the mitochondrial electron transport chain [6]: inhibition
IC50 ([2]; Homo sapiens, HT-29, 48 h): 39.2 ± 4.6 µM
Anti-Austerity Activity Selectivity (PANC-1 cancer cells): selective
IC50 (PANC-1 cancer cells; [12]): 213 ± 4.07 µM
IC50 (PANC-1 cancer cells; [13]): 22.4 ± 2.5 µM
Selective index (SI) (PANC-1 cancer cells): 10
IC50 ([3]; Homo sapiens, KMS-11, 48 h): 7.6 ± 0.4 µM
IC50 ([4]; Homo sapiens, PANC-1, 48 h): 24.7 ± 4.44 µM

CC(C)[C@@H](C)/C=C/[C@@H](C)[C@H]1CC[C@@H]2[C@]1(C)CC[C@H]1[C@]23C=C[C@]2(C[C@@H](O)CC[C@]12C)OO3 [Compound 5, ergosterol peroxide]
IC50 ([1]; Homo sapiens, HUVEC): > 100 µM
IC50 [5]: > 100 µM
IC50 ([2]; Homo sapiens, HT-29, 48 h): > 100 µM
IC50 (PANC-1 cancer cells; [12]): > 100 µM
IC50 (PANC-1 cancer cells; [13]): > 100 µM
IC50 ([3]; Homo sapiens, KMS-11, 48 h): > 100 µM
IC50 ([4]; Homo sapiens, PANC-1, 48 h): > 100 µM

COc1cc(O)c2c(=O)c(C)c(C)oc2c1 [Compound 8, 5-hydroxy-2,3-dimethyl-7-methoxychromone]
IC50 ([1]; Homo sapiens, HUVEC): > 100 µM
IC50 [5]: > 100 µM
IC50 ([2]; Homo sapiens, HT-29, 48 h): > 100 µM
DPPH scavenging activity [7]: weak or no
IC50 (PANC-1 cancer cells; [12]): > 100 µM
IC50 (PANC-1 cancer cells; [13]): > 100 µM
IC50 ([3]; Homo sapiens, KMS-11, 48 h): > 100 µM
Antimicrobial activity [8]: weak or no
IC50 ([4]; Homo sapiens, PANC-1, 48 h): > 100 µM

CCC(C)C=CC=C(C)CC(C)C=CC=CC1OC(=O)C(O)C2OC12C (stereo not shown) [Compound 9, nafuredin A]
Stability in air [9]: unstable in air
IC50 ([1]; Homo sapiens, HUVEC): 2.45 ± 0.16 µM
Cytotoxicity (colon HCT-116): no cytotoxicity
Cytotoxicity (human cervical HeLa): no cytotoxicity
Cytotoxicity (breast MCF-7): no cytotoxicity
Antibacterial activity against Escherichia coli (Escherichia coli): exhibited antibacterial activity
IC50 [5]: 6.9 to 15.3 µM
IC50 ([2]; Homo sapiens, HT-29, 48 h): 11.9 ± 0.55 µM
Cytotoxicity (leukemia K562): no cytotoxicity
Cytotoxicity (lung A549): no cytotoxicity
Anti-Austerity Activity Selectivity (PANC-1 cancer cells): selective
IC50 (PANC-1 cancer cells; [12]): 76.7 ± 3.22 µM
IC50 (PANC-1 cancer cells; [13]): 49 ± 1.31 µM
Selective index (SI) (PANC-1 cancer cells): 2
IC50 ([3]; Homo sapiens, KMS-11, 48 h): 6.9 ± 1.84 µM
Cytotoxicity [10]: no cytotoxicity
Inhibition of complex I in helminth mitochondria [11]: selective inhibition
Cytotoxicity (leukemia HL-60): no cytotoxicity
IC50 ([4]; Homo sapiens, PANC-1, 48 h): 15.3 ± 0.44 µM
